Consider 25 compounds from US11117915B2, “Antibacterial aminoglycoside analogs” (Cipla USA, Inc., priority 2007, dated 2021).

Values after ≈ are worked out from the molar mass of the structure shown.

In assay [1] the test system is E. coli ATCC 25922. The assay can be described thus: MIC assay, CLSI broth microdilution, E. coli ATCC 25922 (AECO001). In kind it is cell-based. The conditions noted are these: Escherichia coli, ATCC25922, 20 h, read-out: MIC AECO001. The method, boiled down:
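Bacteria from overnight agar colonies, suspended in saline, added to serial two-fold dilutions in Mueller Hinton Broth at 5×10^5 CFU/mL final. Incubation 35° C., 20 hours, ambient air, per CLSI M7-A7 reference method.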
(Broth dilution looks for growth in wells or tubes with falling amounts of substance.)

For assay [2], the system named is P. aeruginosa ATCC 27853. The assay can be described thus: MIC assay, CLSI broth microdilution, P. aeruginosa ATCC 27853 (APAE001). The assay is classed as cell-based. To be noted: Pseudomonas aeruginosa, ATCC27853, 20 h, read-out: MIC APAE001. In outline:
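MICs were read after 20 hours at 35° C in ambient air, with a final inoculum of 5×10^5 CFU/mL from saline-suspended overnight colonies. Serial two-fold dilutions in Mueller Hinton Broth followed the CLSI reference method (M7-A7), with QC strains E. coli ATCC 25922, P. aeruginosa ATCC 27853 and S. aureus ATCC 29213.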

Broadly, the MIC is the smallest concentration in the dilution series that meets the test's criterion for growth inhibition.

With `CN[C@@H]1[C@@H](O)[C@@H](O[C@@H]2[C@@H](O)[C@H](O[C@H]3OC(CNCC4(CN)CC4)=CC[C@H]3N)[C@@H](N)C[C@H]2NC(=O)C(O)C2CNC2)OC[C@]1(C)O` (some centres unmarked) [Example 74, 6′-(Methyl-1-aminomethyl-cyclopropyl)-1-(2-(azetidin-3-yl)-2-hydroxy-acetyl)-sisomicin], the MIC in assay [1] was 1 to 16 µg/mL (≈ 1.55 to 24.9 µM); in assay [2], greater than 16 µg/mL.

Regarding `CN[C@@H]1[C@@H](O)[C@@H](O[C@@H]2[C@@H](O)[C@H](O[C@H]3OC(CNCCO)=CC[C@H]3N)[C@@H](N)C[C@H]2NC(=O)C(O)C2CNC2)OC[C@]1(C)O` (some centres unmarked) [Example 75, 6′-(2-Hydroxy-ethyl)-1-(2-(azetidin-3-yl)-2-hydroxy-acetyl)-sisomicin], the MIC is 1 to 16 µg/mL (≈ 1.65 to 26.5 µM) in assay [1] and greater than 16 µg/mL in assay [2].

Take `CN[C@@H]1[C@@H](O)[C@@H](O[C@@H]2[C@@H](O)[C@H](O[C@H]3OC(CNCCCN)=CC[C@H]3N)[C@@H](N)C[C@H]2NC(=O)C(O)C2CNC2)OC[C@]1(C)O` (some centres unmarked) [Example 76, 6′-(3-Amino-propyl)-1-(2-(azetidin-3-yl)-2-hydroxy-acetyl)-sisomicin]: the minimal inhibitory concentration (MIC) in assay [1] and in assay [2] was 1 to 16 µg/mL (≈ 1.62 to 25.9 µM) throughout.

For the compound `CN[C@@H]1[C@@H](O)[C@@H](O[C@@H]2[C@@H](O)[C@H](O[C@H]3OC(CNCC(O)CCN)=CC[C@H]3N)[C@@H](N)C[C@H]2NC(=O)C(O)C2CNC2)OC[C@]1(C)O` (some centres unmarked) [Example 77, 6′-(2-Hydroxy-4-amino-butyl)-1-(2-(azetidin-3-yl)-2-hydroxy-acetyl)-sisomicin], the MIC in assay [1] and in assay [2] was 1 to 16 µg/mL (≈ 1.54 to 24.7 µM) throughout.

Consider `CN[C@@H]1[C@@H](O)[C@@H](O[C@@H]2[C@@H](O)[C@H](O[C@H]3OC(CNC[C@H]4C[C@H](N)C4)=CC[C@H]3N)[C@@H](N)C[C@H]2NC(=O)C2(O)CCNC2)OC[C@]1(C)O` (stereo partly drawn) [Example 78, 6′-(Methyl-trans-3-amino-cyclobutyl)-1-(3-hydroxy-pyrrolidin-3-yl-acetyl)-sisomicin], for which the MIC in assay [1] is less than 1 µg/mL; in assay [2], 1 to 16 µg/mL (≈ 1.55 to 24.9 µM).

With `CN[C@@H]1[C@@H](O)[C@@H](O[C@@H]2[C@@H](O)[C@H](O[C@H]3OC(CNCC4(CN)CC4)=CC[C@H]3N)[C@@H](N)C[C@H]2NC(=O)C2(O)CCNC2)OC[C@]1(C)O` (some centres unmarked) [Example 79], the results for the MIC in assay [1] and in assay [2] were 1 to 16 µg/mL (≈ 1.55 to 24.9 µM) and greater than 16 µg/mL, respectively.

For `CN[C@@H]1[C@@H](O)[C@@H](O[C@@H]2[C@@H](O)[C@H](O[C@H]3OC(CNCCCC(O)CN)=CC[C@H]3N)[C@@H](N)C[C@H]2NC(=O)[C@@H](O)CN)OC[C@]1(C)O` (stereo partly drawn) [Example 80, 6′-(4-Hydroxy-5-amino-pentyl)-1-(3-amino-2(S)-hydroxy-propionyl)-sisomicin], the MIC in assay [1] and in assay [2] was less than 1 µg/mL each time.

With `CN[C@@H]1[C@@H](O)[C@@H](O[C@@H]2[C@@H](O)[C@H](O[C@H]3OC(CNCCNC4CNC4)=CC[C@H]3N)[C@@H](N)C[C@H]2NC(=O)[C@@H](O)CN)OC[C@]1(C)O` [Example 81, 6′-(N-(Azetidin-3-yl)-2-amino-ethyl)-1-(3-amino-2(S)-hydroxy-propionyl)-sisomicin], the MIC in assay [1] was 1 to 16 µg/mL (≈ 1.58 to 25.3 µM); in assay [2] it was greater than 16 µg/mL.

With `CN[C@@H]1[C@@H](O)[C@@H](O[C@@H]2[C@@H](O)[C@H](O[C@H]3OC(CNCC(O)CN)=CC[C@H]3N)[C@@H](N)C[C@H]2NC(=O)C(O)C2CNC2)OC[C@]1(C)O` (some centres unmarked) [Example 82, 6′-(2-Hydroxy-3-amino-propyl)-1-(2-(azetidin-3-yl)-2-hydroxy-acetyl)-sisomicin], the MIC in assay [1] was 1 to 16 µg/mL (≈ 1.58 to 25.2 µM); in assay [2] it was greater than 16 µg/mL.

As for `CN[C@@H]1[C@@H](O)[C@@H](O[C@@H]2[C@@H](O)[C@H](O[C@H]3OC(CNCC4(O)CC(N)C4)=CC[C@H]3N)[C@@H](N)C[C@H]2NC(=O)C(O)C2CNC2)OC[C@]1(C)O` (some centres unmarked) [Example 83, 6′-(Methyl-3-amino-1-hydroxy-cyclobutyl)-1-(2-(azetidin-3-yl)-2-hydroxy-acetyl)-sisomicin], the MIC in assay [1] is 1 to 16 µg/mL (≈ 1.52 to 24.3 µM); in assay [2], greater than 16 µg/mL.

Consider `CN[C@@H]1[C@@H](O)[C@@H](O[C@@H]2[C@@H](O)[C@H](O[C@H]3OC(CN)=CC[C@H]3NCC3CCNC3)[C@@H](N)C[C@H]2NC(=O)[C@@H](O)CCN)OC[C@]1(C)O` (stereo partly drawn) [Example 84, 2′-(Methyl-pyrrolidin-3-yl)-1-(4-amino-2(S)-hydroxy-butyryl)-sisomicin], for which the values for the MIC in assay [1] and in assay [2] were less than 1 µg/mL and 1 to 16 µg/mL (≈ 1.58 to 25.3 µM), respectively.

Take `CN[C@@H]1[C@@H](O)[C@@H](O[C@@H]2[C@@H](O)[C@H](O[C@H]3OC(CN)=CC[C@H]3NCC3CCCN3)[C@@H](N)C[C@H]2NC(=O)[C@@H](O)CCN)OC[C@]1(C)O` (stereo partly drawn) [Example 85, 2′-(Methyl-pyrrolidin-2-yl)-1-(4-amino-2(S)-hydroxy-butyryl)-sisomicin]: the MIC was less than 1 µg/mL in assay [1] and 1 to 16 µg/mL (≈ 1.58 to 25.3 µM) in assay [2].

As for `CNCC(=O)N[C@@H]1CC=C(CN)O[C@@H]1O[C@H]1[C@H](O)[C@@H](O[C@H]2OC[C@](C)(O)[C@H](NC)[C@H]2O)[C@H](NC(=O)[C@@H](O)CCN)C[C@@H]1N` [Example 86, 2′-(N-Methyl-amino-acetyl)-1-(4-amino-2(S)-hydroxy-butyryl)-sisomicin], the MIC in assay [1] and in assay [2] was 1 to 16 µg/mL (≈ 1.61 to 25.8 µM) throughout.

Turning to `CN[C@@H]1[C@@H](O)[C@@H](O[C@@H]2[C@@H](O)[C@H](O[C@H]3OC(CN)=CC[C@H]3NC(=O)CN)[C@@H](N)C[C@H]2NC(=O)[C@@H](O)CCN)OC[C@]1(C)O` [Example 87, 2′-(2-Amino-acetyl)-1-(4-amino-2(S)-hydroxy-butyryl)-sisomicin], the MIC in assay [1] and in assay [2] was 1 to 16 µg/mL (≈ 1.65 to 26.4 µM) in each case.

Regarding `CN[C@@H]1[C@@H](O)[C@@H](O[C@@H]2[C@@H](O)[C@H](O[C@H]3OC(CN)=CC[C@H]3NC(=O)C(C)N)[C@@H](N)C[C@H]2NC(=O)[C@@H](O)CCN)OC[C@]1(C)O` (stereo partly drawn) [Example 88, 2′-(2-Amino-propionyl)-1-(4-amino-2(S)-hydroxy-butyryl)-sisomicin], the MIC in assay [1] and in assay [2] was 1 to 16 µg/mL (≈ 1.61 to 25.8 µM) throughout.

On to `CN[C@@H]1[C@@H](O)[C@@H](O[C@@H]2[C@@H](O)[C@H](O[C@H]3OC(CN)=CC[C@H]3NC(=O)C(O)CN)[C@@H](N)C[C@H]2NC(=O)[C@@H](O)CCN)OC[C@]1(C)O` (stereo partly drawn) [Example 89, 2′-(3-Amino-2-hydroxy-propionyl)-1-(4-amino-2(S)-hydroxy-butyryl)-sisomicin], for which the minimal inhibitory concentration (MIC) in assay [1] is less than 1 µg/mL; in assay [2], 1 to 16 µg/mL (≈ 1.57 to 25.2 µM).

Regarding `CN[C@@H]1[C@@H](O)[C@@H](O[C@@H]2[C@@H](O)[C@H](O[C@H]3OC(CN)=CC[C@H]3NC(=O)C3CCCN3)[C@@H](N)C[C@H]2NC(=O)[C@@H](O)CCN)OC[C@]1(C)O` (some centres unmarked) [Example 90], the values for the MIC in assay [1] and in assay [2] were less than 1 µg/mL and 1 to 16 µg/mL (≈ 1.55 to 24.8 µM), respectively.

As to `CN[C@@H]1[C@@H](O)[C@@H](O[C@@H]2[C@@H](O)[C@H](O[C@H]3OC(CN)=CC[C@H]3NCCCN)[C@@H](N)C[C@H]2NC(=O)[C@@H](O)CCN)OC[C@]1(C)O` [Example 91, 2′-(3-Amino-propyl)-1-(4-amino-2(S)-hydroxy-butyryl)-sisomicin], the MIC in assay [1] and in assay [2] was less than 1 µg/mL each time.

Consider `CN[C@@H]1[C@@H](O)[C@@H](O[C@@H]2[C@@H](O)[C@H](O[C@H]3OC(CN)=CC[C@H]3NC(=O)CC3CNCCO3)[C@@H](N)C[C@H]2NC(=O)[C@@H](O)CCN)OC[C@]1(C)O` (stereo partly drawn) [Example 92, 2′-(Morpholin-2-yl-acetyl)-1-(4-amino-2(S)-hydroxy-butyryl)-sisomicin], for which the MIC in assay [1] is less than 1 µg/mL; in assay [2] it was greater than 16 µg/mL.

With `CN[C@@H]1[C@@H](O)[C@@H](O[C@@H]2[C@@H](O)[C@H](O[C@H]3OC(CN)=CC[C@H]3NS(=O)(=O)CCN)[C@@H](N)C[C@H]2NC(=O)[C@@H](O)CCN)OC[C@]1(C)O` [Example 93, 2′-(2-Amino-ethyl-sulfonamide)-1-(4-amino-2(S)-hydroxy-butyryl)-sisomicin], the results for the minimum inhibitory concentration (MIC) in assay [1] and in assay [2] were less than 1 µg/mL and 1 to 16 µg/mL (≈ 1.52 to 24.4 µM), respectively.

For the compound `CN[C@@H]1[C@@H](O)[C@@H](O[C@@H]2[C@@H](O)[C@H](O[C@H]3OC(CN)=CC[C@H]3NCC(C)(C)CN(C)C)[C@@H](N)C[C@H]2NC(=O)[C@@H](O)CCN)OC[C@]1(C)O` [Example 94, 2′-(N, N-Dimethyl-2,2-dimethyl-3-amino-propyl)-1-(4-amino-2(S)-hydroxy-butyryl)-sisomicin], the results for the MIC in assay [1] and in assay [2] were 1 to 16 µg/mL (≈ 1.51 to 24.2 µM) and greater than 16 µg/mL, respectively.

Turning to `CN[C@@H]1[C@@H](O)[C@@H](O[C@@H]2[C@@H](O)[C@H](O[C@H]3OC(CN)=CC[C@H]3NC[C@H](C)N)[C@@H](N)C[C@H]2NC(=O)[C@@H](O)CCN)OC[C@]1(C)O` [Example 95, 2′-(2(S)-Amino-propyl)-1-(4-amino-2(S)-hydroxy-butyryl)-sisomicin], the minimal inhibitory concentration (MIC) was less than 1 µg/mL in assay [1] and greater than 16 µg/mL in assay [2].

For `CN[C@@H]1[C@@H](O)[C@@H](O[C@@H]2[C@@H](O)[C@H](O[C@H]3OC(CN)=CC[C@H]3NCC(N)CO)[C@@H](N)C[C@H]2NC(=O)[C@@H](O)CCN)OC[C@]1(C)O` (stereo partly drawn) [Example 97, 2′-(2-Amino-propanol)-1-(4-amino-2(S)-hydroxy-butyryl)-sisomicin], the values for the minimum inhibitory concentration (MIC) in assay [1] and in assay [2] were less than 1 µg/mL and 1 to 16 µg/mL (≈ 1.61 to 25.7 µM), respectively.

Take `CN[C@@H]1[C@@H](O)[C@@H](O[C@@H]2[C@@H](O)[C@H](O[C@H]3OC(CN)=CC[C@H]3NCCO)[C@@H](N)C[C@H]2NC(=O)[C@@H](O)CCN)OC[C@]1(C)O` [Example 98, 2′-(2-Hydroxy-ethyl)-1-(4-amino-2(S)-hydroxy-butyryl)-sisomicin]: the MIC in assay [1] and in assay [2] was 1 to 16 µg/mL (≈ 1.69 to 27 µM) each time.

In the case of `CN[C@@H]1[C@@H](O)[C@@H](O[C@@H]2[C@@H](O)[C@H](O[C@H]3OC(CN)=CC[C@H]3NC(=O)C(N)CCCN)[C@@H](N)C[C@H]2NC(=O)[C@@H](O)CCN)OC[C@]1(C)O` (stereo partly drawn) [Example 99, 2′-(2,5-Diamino-pentoyl)-1-(4-amino-2(S)-hydroxy-butyryl)-sisomicin], the MIC in assay [1] and in assay [2] was 1 to 16 µg/mL (≈ 1.51 to 24.1 µM) throughout.
